Earlier results as cited in patent US20100160456A1 (priority 2007, published 2010).

Assays:
[1] = incidence grade
[2] = after being injected with Propofol
[3] = known emulsion

Row | Compound | Excitation [1] | Latency [1] | Nausea & vomiting [1] | Awakening [1] | Injection-related pain [1] | patients with a rejection to the acute pain after injection [2] [%] | shelf-life of the product once the ampoule is opened [3] | Delirium [1]
1 | CCCOC(=O)Cc1ccc(OCC(=O)N(CC)CC)c(OC)c1 [PRPN, Propanidine] | + | + | ++ | – | – | – | – | –
2 | CC(C)c1cccc(C(C)C)c1O [Propofol, 2,6-diisopropylphenol] | – | ++ | – | + | +++ | 80 | approximately 8 hours | –
3 | CC(=O)NS(=O)(=O)c1ccc(N)cc1 [KET, Cetamide] | +++ | + | + | – | – | – | – | +++
4 | Althesin [ALTS] | + | + | + | + | – | – | – | –
5 | CCOC(=O)c1cncn1[C@H](C)c1ccccc1 [ETOM, Etomidate] | ++ | + | + | – | + | – | – | +
6 | CCCC(C)C1(CC)C(=O)NC(=S)NC1=O (stereo not shown) [TIOP, Thiopental] | – | ++ | – | + | + | – | – | –
7 | C=CCC1(C(C)C#CCC)C(=O)N=C(O)N(C)C1=O (stereo not shown) [MTOX, Methohexital] | + | ++ | – | + | + | – | – | –
